According to paper PMC9095875, “Solubility measurement and thermodynamic modeling of pantoprazole sodium sesquihydrate in supercritical carbon dioxide” (Scientific Reports, 2022):
Several values for one entry are separate records, joined by “and”; a condition that tells them apart may be missing. Equal values may be shown once. Marks after values point to notes of the source that are not given here.

Tests used:
[1] = Solubility of solid drug in supercritical carbon dioxide (isobaric-isothermal method, UV-Vis at 290 nm); format: physicochemical; conditions: for y2 × 10^4 (mole fraction): value is y2 × 10^4
Protocol: The method utilized is considered as the isobaric-isothermal method. Each measurement is performed with high precision, during experiments; temperature is maintained at desired value within ± 0.1 K. A known amount of pantoprazole sodium sesquihydrate drug (solute) has been used in the equilibrium cell to measure the solubility data. The capacity of the cell is 70 mL. A magnetic stirrer was mounted with the cell to measure the solubility data. A magnetic stirrer that is mounted with the equilibrium cell helps in attaining equilibrium between the solute and the ScCO2. To confirm equilibrium attainment, the experiments are done with a fresh sample at specified temperature and pressure at various time intervals (5 min, 10 min, 20 min, 30 min, 40 min, 50 min and 60 min) and the solubility readings are recorded. It is observed that the solubility is independent of time after 30 min. Thus, for correct results after 60 min, samples are considered for analysis. After equilibrium, 600 μL of a saturated sample is collected in dematerialized water (DM water's conductivity is 1μS/cm) via a 6-way port, two-status valve. More details are readily available elsewhere[30],[31]. This experimental setup has already been validated in the previous work with alpha-tocopherol and naphthalene. Each experiment is carried out in triplicate. Spectrophotometer (UV-Visible, Model UNICO-4802) is utilized to quantify the pantoprazole sodium sesquihydrate solubility. The drug test samples were prepared by dissolving known weights of drug in known volume of DM water. Pantoprazole sodium sesquihydrate samples were analyzed at 290 nm and calibrations curve was established, indicating R^2 of 0.99. The following sets of equations are used to calculate equilibrium mole fraction, y2, and solubility, S (g/L), in ScCO2:1 y2=nsolute/nsolute+nCO2, where:2 […]/mol,and 3 […]/mol 4 […]) where nsolute and nCO2 are moles of solute (Pantoprazole sodium sesquihydrate) and CO2 in the sampling loop, respectively, Cs is the solute concentration (g/L), Ms and MCO2 are molecular weights of the solute and CO2 and S (g/L) is the equilibrium solubility.

[2] = Thermodynamic properties calculated from constants of the Chrastil, reformulated Chrastil and Bartle solubility models; format: physicochemical
Description: It is the first solvate complex model and correlates solubility as a function of supercritical fluid density and temperature as:18 y2=ρ1^κ-1[…] where κ and E0-E1 are model constants. Since Eq. (13) is dimensionally inconsistent[24],[26],[39], it is dimensionally corrected and known as Reformulated […] model:19 y2=[…] where κ^' and E0-E1 are model constants. It is one of the successful empirical models and correlates solubility as a function of temperature, supercritical fluid density and total pressure as:20 […] where G0-G2 are model constants. From parameter G1 , the vaporization enthalpy is ΔvapH=-G1R in which R is universal gas constant. The new solution model proposed in this work has three adjustable parameters ( ΔCp , a11 and a22 ). For regression, these parameters are treated as temperature dependent and temperature independent. Although conceptually, these parameters are temperature dependent[43],[44], however, in literature, these parameters are handled as temperature independent over a small temperature range[45]. Therefore, both temperature dependent and independent results are reported in this study. For regression, melting temperature and molar volume of pantoprazole sodium sesquihydrate are needed. The required melting temperature is obtained from the material's source and the molar volume of the solid pantoprazole sodium sesquihydrate is calculated using Immirzi and […] method. […] The proposed model correlates the data less than 14.9% and 16.23% in terms of AARD% for temperature dependent and independent cases, respectively. […] The correlations of the solubility data with temperature dependent parameters are better than temperature independent parameters. […], Sodeifian et al., and […] models correlate the solubility data. The correlations of the data are quite satisfactory for […] model compared to […] and Sodeifian models. From the conventional model constants, the thermodynamic properties, namely total heat of enthalpy of vaporization and solvation are calculated and reported in Table 6. […]

Structure (SMILES): COc1ccnc(C[S+]([O-])c2nc3ccc(OC(F)F)cc3[nH]2)c1OC (stereo not shown) [pantoprazole sodium sesquihydrate, Pantoprazole sodium sesquihydrate]
- y2 × 10^4 (mole fraction) ([1]; in ScCO2, 308 K, 12 MPa, ScCO2 density 769 kg/m^3): 0.0648 mole fraction
- y2 × 10^4 (mole fraction) ([1]; in ScCO2, 308 K, 15 MPa, ScCO2 density 817 kg/m^3): 0.0764 mole fraction
- y2 × 10^4 (mole fraction) ([1]; in ScCO2, 308 K, 18 MPa, ScCO2 density 849 kg/m^3): 0.0921 mole fraction
- y2 × 10^4 (mole fraction) ([1]; in ScCO2, 308 K, 21 MPa, ScCO2 density 875 kg/m^3): 0.0958 mole fraction
- y2 × 10^4 (mole fraction) ([1]; in ScCO2, 308 K, 24 MPa, ScCO2 density 896 kg/m^3): 0.1239 mole fraction
- y2 × 10^4 (mole fraction) ([1]; in ScCO2, 308 K, 27 MPa, ScCO2 density 914 kg/m^3): 0.1489 mole fraction
- y2 × 10^4 (mole fraction) ([1]; in ScCO2, 318 K, 12 MPa, ScCO2 density 661 kg/m^3): 0.0548 mole fraction
- y2 × 10^4 (mole fraction) ([1]; in ScCO2, 318 K, 15 MPa, ScCO2 density 744 kg/m^3): 0.0580 mole fraction
- y2 × 10^4 (mole fraction) ([1]; in ScCO2, 318 K, 18 MPa, ScCO2 density 791 kg/m^3): 0.0990 mole fraction
- y2 × 10^4 (mole fraction) ([1]; in ScCO2, 318 K, 21 MPa, ScCO2 density 824 kg/m^3): 0.1192 mole fraction
- y2 × 10^4 (mole fraction) ([1]; in ScCO2, 318 K, 24 MPa, ScCO2 density 851 kg/m^3): 0.1436 mole fraction
- y2 × 10^4 (mole fraction) ([1]; in ScCO2, 318 K, 27 MPa, ScCO2 density 872 kg/m^3): 0.1930 mole fraction
- y2 × 10^4 (mole fraction) ([1]; in ScCO2, 328 K, 12 MPa, ScCO2 density 509 kg/m^3): 0.0381 mole fraction
- y2 × 10^4 (mole fraction) ([1]; in ScCO2, 328 K, 15 MPa, ScCO2 density 656 kg/m^3): 0.0498 mole fraction
- y2 × 10^4 (mole fraction) ([1]; in ScCO2, 328 K, 18 MPa, ScCO2 density 725 kg/m^3): 0.1388 mole fraction
- y2 × 10^4 (mole fraction) ([1]; in ScCO2, 328 K, 21 MPa, ScCO2 density 769 kg/m^3): 0.1579 mole fraction
- y2 × 10^4 (mole fraction) ([1]; in ScCO2, 328 K, 24 MPa, ScCO2 density 802 kg/m^3): 0.2354 mole fraction
- y2 × 10^4 (mole fraction) ([1]; in ScCO2, 328 K, 27 MPa, ScCO2 density 829 kg/m^3): 0.3106 mole fraction
- y2 × 10^4 (mole fraction) ([1]; in ScCO2, 338 K, 12 MPa, ScCO2 density 388 kg/m^3): 0.0301 mole fraction
- y2 × 10^4 (mole fraction) ([1]; in ScCO2, 338 K, 15 MPa, ScCO2 density 557 kg/m^3): 0.0403 mole fraction
- y2 × 10^4 (mole fraction) ([1]; in ScCO2, 338 K, 18 MPa, ScCO2 density 652 kg/m^3): 0.1548 mole fraction
- y2 × 10^4 (mole fraction) ([1]; in ScCO2, 338 K, 21 MPa, ScCO2 density 710 kg/m^3): 0.1938 mole fraction
- y2 × 10^4 (mole fraction) ([1]; in ScCO2, 338 K, 24 MPa, ScCO2 density 751 kg/m^3): 0.3408 mole fraction
- y2 × 10^4 (mole fraction) ([1]; in ScCO2, 338 K, 27 MPa, ScCO2 density 783 kg/m^3): 0.4634 mole fraction
- cross over pressure ([1]; solubility isotherms 308-338 K in ScCO2, from Fig. 2): around 16.0 MPa
- Enthalpy of solvation, ΔHsol ([2]; Bartle et al. and Chrastil models combination (difference of ΔHvap and ΔHtotal)): −15.829 kJ/mol and −15.829^d kJ/mol
- Enthalpy of vaporization ΔHvap ([2]; from Bartle et al. model (ΔvapH = −G1R)): ~75.261^c (approximate value) kJ/mol
- Total enthalpy, ΔHtotal ([2]; from Reformulated Chrastil model): 39.832^b kJ/mol
